# Assays:
# [1] = test system: dog; details: Chronic toxicity; beagle; Oral; Feed; dose end: 52 week; group: systemic; systemic / clinical chemistry / cholesterol / cholesterol
# [2] = test system: dog; details: Chronic toxicity; beagle; Oral; Feed; dose end: 24 month; group: systemic; systemic / clinical chemistry / alanine aminotransferase (alt/sgpt) / alanine aminotransferase (alt/sgpt) + systemic / clinical chemistry / …
# [3] = test system: rat; details: Sub-acute dermal toxicity, sprague dawley, Topical, dose end: 28 day, group: systemic
# [4] = test system: hamster; details: Multigenerational reproductive toxicity study, golden syrian, Oral, Gavage/Intubation, dose end: 1 generation
# [5] = test system: rat; details: Multigenerational reproductive toxicity study, long evans, Oral, Gavage/Intubation, dose end: 1 generation
# [6] = test system: rat; details: Prenatal developmental toxicity study, other, Oral, Gavage/Intubation, dose end: 16 GD
# [7] = test system: dog; details: Subchronic oral toxicity in nonrodent, beagle, Feed, dose end: 13 week, group: systemic
# [8] = test system: rat; details: Subchronic oral toxicity in rodents, sprague dawley, Feed, dose end: 13 week, group: systemic
# [9] = test system: dog; details: Chronic toxicity; beagle; Oral; Capsule; dose end: 52 week; group: systemic; systemic / in life observation / clinical signs / excitation + systemic / in life observation / clinical signs / hypersensitivity + systemic…
# [10] = test system: rat; details: Prenatal developmental toxicity study, sprague dawley, Oral, Gavage/Intubation, dose end: 15 GD
# [11] = test system: mouse; details: Subchronic oral toxicity in rodents, cd1, Feed, dose end: 13 week, group: systemic
# [12] = test system: mouse; details: Subchronic oral toxicity in rodents, other, Feed, dose end: 90 day, group: systemic, systemic / in life observation / clinical signs / aggressive behavior + systemic / in life observation / clinical signs / irritability + …
# [13] = test system: mouse; details: Carcinogenicity, cd1, Oral, Feed, dose end: 78 week, group: systemic
# [14] = test system: dog; details: Subchronic oral toxicity in nonrodent, beagle, Capsule, dose end: 13 week, group: systemic
# [15] = test system: rat; details: Combined chronic toxicity/carcinogenicity, sprague dawley, Oral, Feed, dose end: 2 year, group: systemic
# [16] = test system: rat; details: Subchronic oral toxicity in rodents, other, Gavage/Intubation, dose end: 92 day, group: systemic, systemic / in life observation / clinical signs / respiration (rales) + systemic / in life observation / mortality / mortality + systemic / …
# [17] = test system: rabbit; details: Sub-acute dermal toxicity, new zealand white, Topical, dose end: 21 day, group: systemic, systemic / in life observation / clinical signs / erythema + systemic / pathology gross / skin / discolored + systemic / pathology gross / …
# [18] = systemic / pathology microscopic / epididymis / hypospermia + systemic / pathology microscopic / testes / degeneration
# [19] = systemic / pathology microscopic / epididymis / hypospermia + systemic / pathology microscopic / testes / degeneration + systemic / …
# [20] = group: offspring, systemic / in life observation / body weight / offspring (pup) weight
# [21] = group: parental, systemic / pathology gross / kidney / enlarged + systemic / pathology gross / liver / enlarged + systemic / pathology gross / sperm measure…
# [22] = group: parental, systemic / organ weight / epididymis / absolute + systemic / organ weight / testes / absolute + systemic / pathology gross / sperm measure…
# [23] = group: parental, systemic / pathology gross / sperm measure / sperm count + systemic / pathology microscopic / testes / atrophy
# [24] = group: reproductive, reproductive / reproductive performance / pregnancy / pregnancy + reproductive / reproductive performance / resorptions / resorptions + …
# [25] = group: developmental, developmental / developmental malformation / bone / bipartite ossification + developmental / developmental malformation / bone / dumbbell …
# [26] = group: maternal, systemic / organ weight / liver / absolute
# [27] = systemic / in life observation / food consumption / food consumption + systemic / clinical chemistry / cholesterol / cholesterol + systemic…
# [28] = systemic / clinical chemistry / urea nitrogen / urea nitrogen + systemic / clinical chemistry / aspartate aminotransferase (ast/sgot) / …
# [29] = group: developmental, developmental / developmental malformation / bone / incomplete ossification + systemic / in life observation / body weight / fetal weight
# [30] = group: maternal, systemic / in life observation / body weight / body weight gain + systemic / in life observation / food consumption / food consumption + …
# [31] = systemic / pathology microscopic / liver / hypertrophy + systemic / pathology microscopic / liver / vacuolization cytoplasmic
# [32] = systemic / organ weight / liver / relative to body weight + systemic / pathology microscopic / liver / vacuolization + systemic / in life …
# [33] = systemic / in life observation / body weight / body weight gain + systemic / in life observation / clinical signs / anorexia
# [34] = systemic / in life observation / body weight / body weight gain + systemic / in life observation / clinical signs / anorexia + systemic / in…
# [35] = systemic / clinical chemistry / albumin / albumin + systemic / clinical chemistry / albumin-globulin ratio / albumin-globulin ratio + …
# [36] = systemic / organ weight / brain / relative to body weight + systemic / organ weight / spleen / absolute + systemic / organ weight / thyroid …
smiles,measurement,setting,value
COC(=O)Nc1nc2ccccc2[nH]1 [Carbendazim],LEL,[1],16.5 mg/kg/day
same,LOAEL,[1],16.5 mg/kg/day
same,NEL,[1],6.43 mg/kg/day
same,NOAEL,[1],6.43 mg/kg/day
same,LEL,[2],12.5 mg/kg/day
same,LOAEL,[2],12.5 mg/kg/day
same,NEL,[2],2.5 mg/kg/day
same,NOAEL,[2],2.5 mg/kg/day
same,LEL,[3]; [18],120 mg/kg/day
same,LOAEL,[3]; [18],120 mg/kg/day
same,NEL,[3]; [19],20 mg/kg/day
same,NOAEL,[3]; [19],20 mg/kg/day
same,LEL,[4]; [20],400 mg/kg/day
same,LOAEL,[4]; [20],> 400 mg/kg/day
same,NEL,[4]; [20],< 400 mg/kg/day
same,NOAEL,[4]; [20],≥ 400 mg/kg/day
same,LEL,[4]; [21],400 mg/kg/day
same,LOAEL,[4]; [21],> 400 mg/kg/day
same,NEL,[4]; [21],< 400 mg/kg/day
same,NOAEL,[4]; [21],≥ 400 mg/kg/day
same,LOAEL,[5]; [22],> 400 mg/kg/day
same,NOAEL,[5]; [22],≥ 400 mg/kg/day
same,LEL,[5]; [23],50 mg/kg/day
same,NEL,[5]; [23],< 50 mg/kg/day
same,LEL,"[5]; group: reproductive, reproductive / reproductive performance / pregnancy / pregnancy + reproductive / offspring survival early / litter viability other / litter …",200 mg/kg/day
same,NEL,"[5]; group: reproductive, reproductive / reproductive performance / pregnancy / pregnancy + reproductive / reproductive performance / resorptions / resorptions",100 mg/kg/day
same,LOAEL,[5]; [24],> 400 mg/kg/day
same,NOAEL,[5]; [24],≥ 400 mg/kg/day
same,LEL,[6]; [25],20 mg/kg/day
same,LOAEL,[6]; [25],20 mg/kg/day
same,NEL,[6]; [25],10 mg/kg/day
same,NOAEL,[6]; [25],10 mg/kg/day
same,LOAEL,[6]; [26],90 mg/kg/day
same,NEL,[6]; [26],20 mg/kg/day
same,NOAEL,[6]; [26],20 mg/kg/day
same,LEL,"[6]; group: maternal, systemic / organ weight / liver / absolute + reproductive / offspring survival early / live fetuses / live fetuses + reproductive / …",90 mg/kg/day
same,LOAEL,[7]; systemic / clinical chemistry / cholesterol / cholesterol + systemic / pathology microscopic / liver / [other],35 mg/kg/day
same,LEL,[7]; systemic / in life observation / food consumption / food consumption + systemic / clinical chemistry / cholesterol / cholesterol,11.3 mg/kg/day
same,NEL,[7]; [27],2.7 mg/kg/day
same,NOAEL,[7]; [27],11.3 mg/kg/day
N#Cc1nn(-c2c(Cl)cc(C(F)(F)F)cc2Cl)c(N)c1S(=O)C(F)(F)F (centres undefined) [Fipronil],LOAEL,[8]; systemic / clinical chemistry / protein / protein,1.93 mg/kg/day
same,NOAEL,[8]; systemic / clinical chemistry / protein / protein + systemic / clinical chemistry / albumin-globulin ratio / albumin-globulin ratio + …,0.33 mg/kg/day
same,LEL,[8]; [28],0.07 mg/kg/day
same,NEL,[8]; [28],< 0.07 mg/kg/day
same,LEL,[9],2 mg/kg/day
same,LOAEL,[9],2 mg/kg/day
same,NEL,[9],0.2 mg/kg/day
same,NOAEL,[9],0.2 mg/kg/day
same,LOAEL,"[10]; group: developmental, developmental / developmental malformation / bone / incomplete ossification",2.5 mg/kg/day
same,LEL,[10]; [29],2.5 mg/kg/day
same,NEL,[10]; [29],1 mg/kg/day
same,NOAEL,[10]; [29],1 mg/kg/day
same,LEL,[10]; [30],2.5 mg/kg/day
same,LOAEL,[10]; [30],2.5 mg/kg/day
same,NEL,[10]; [30],1 mg/kg/day
same,NOAEL,[10]; [30],1 mg/kg/day
same,LOAEL,[11]; systemic / in life observation / body weight / body weight gain,3.2 mg/kg/day
same,NOAEL,[11]; systemic / in life observation / body weight / body weight gain + systemic / organ weight / liver / absolute + systemic / organ weight / …,1.27 mg/kg/day
same,LEL,[11]; [31],0.13 mg/kg/day
same,NEL,[11]; [31],< 0.13 mg/kg/day
same,LEL,[12],0.32 mg/kg/day
same,LOAEL,[12],0.32 mg/kg/day
same,NEL,[12],0.08 mg/kg/day
same,NOAEL,[12],0.08 mg/kg/day
same,LEL,[13]; systemic / organ weight / liver / relative to body weight,0.055 mg/kg/day
same,LOAEL,[13]; [32],1.18 mg/kg/day
same,NEL,[13]; [32],0.011 mg/kg/day
same,NOAEL,[13]; [32],0.055 mg/kg/day
same,LEL,[14]; [33],2 mg/kg/day
same,LOAEL,[14]; [33],2 mg/kg/day
same,NEL,[14]; [34],0.5 mg/kg/day
same,NOAEL,[14]; [34],0.5 mg/kg/day
same,LOAEL,[15]; [35],0.059 mg/kg/day
same,NOAEL,[15]; [35],0.019 mg/kg/day
same,LEL,[15]; [36],0.019 mg/kg/day
same,NEL,[15]; [36],< 0.019 mg/kg/day
O=C(CBr)c1ccc(O)cc1 [2-Bromo-4-hydroxyacetophenone],LEL,[16],30 mg/kg/day
same,LOAEL,[16],30 mg/kg/day
same,NEL,[16],6 mg/kg/day
same,NOAEL,[16],6 mg/kg/day
same,LEL,[17],20 mg/kg/day
same,LOAEL,[17],20 mg/kg/day
same,NEL,[17],< 20 mg/kg/day
same,NOAEL,[17],< 20 mg/kg/day
